In US9192656B2, “Methods and compositions for the treatment of cancer” (QUINTESSENCE BIOSCIENCES, INC., priority 2006, dated 2015):

Columns and labels:
[1] = test system: non-small cell lung cancer cell line (A549); test: In vivo inhibition of tumor growth, A549 xenograft; set-up: species or system human tumor cells in nude mice; conditions: for Starting volume: at start
Experimental: (§1) Cells from a non-small cell lung cancer cell line (A549) were grown in nine T175 flasks in F12K media and 10% fetal calf serum until the cells were confluent. 4.5×10^6 cells (in 100 microliters) were injected into the right rear flank of 4-5 week old male homozygous (nu/nu) nude mice (Harlan, Madison Wis.). Tumors were allowed to grow to an average size of ≧75 mm^3 before treatments were initiated. Animals of each tumor type, with the properly sized tumors, were divided into treatment groups, including one set of animals treated weekly with vehicle (phosphate buffered saline, PBS). The vehicle and the test agents were all administered by intraperitoneal injection. Each animal was weighed twice a week during treatment. The tumors were measured twice weekly using calipers. Tumor volume (mm^3) was determined by using the formula for an ellipsoid sphere:
[formula] The efficacy of wild type human RNase 1 is shown relative to cisplatin. The RNase 1 was administered at 75 mg per kg of body weight of the animal once a week (75 mg/kg 1×wk), while the cisplatin was used at 6 mg/kg once a week. The value of n represents the number of animals in the specific treatment arm of the experiment.
(§2) The percent tumor growth inhibition (% TGI) is calculated by: […]
The xenograft model of this example was set up with the human non-small cell lung cancer cell line (A549) as in the previous examples. The efficacy of wild type human RNase 1 is shown relative to tarceva. The RNase 1 was administered at 75 mg per kg of body weight of the animal (75 mg/kg 1×wk) or 150 mg/kg 1×wk. Tarceva was given orally with doses of 50 mg/kg twice a week. The value of n represents the number of animals in the specific treatment arm of the experiment.

[2] = test system: human pancreatic cancer cell line (B×PC-3); test: In vivo inhibition of tumor growth, BxPC-3 xenograft; set-up: species or system human tumor cells in nude mice; conditions: for Starting volume: at start
Experimental: as §1, with “sphere: […]” for “sphere:”
as §2
The xenograft model of this example was set up as in the previous example except that a human pancreatic cancer cell line (B×PC-3) was used. The efficacy of wild type human RNase 1 is shown relative to gemcite. The RNase 1 was administered at 15 mg per kg of body weight of the animal five times per week (15 mg/kg qd×5), while the gemcite was used at 60 mg/kg twice a week. The value of n represents the number of animals in the specific treatment arm of the experiment.
The xenograft model of this example was set up as in the previous example except that a human pancreatic cancer cell line (B×PC-3) was used. The efficacy of wild type human RNase 1 is shown. The RNase 1 was administered at three different doses: (1) 30 mg per kg of body weight of the animal once per week (30 mg/kg 1×wk), (2) 75 mg/kg 1×wk, or (3) 150 mg/kg 1×wk. The value of n represents the number of animals in the specific treatment arm of the experiment.

[3] = Example 3, Table 7, i.p., RNase 1 75 mg/kg 1×wk, cisplatin 6 mg/kg once a week
[4] = Example 6, Table 10, 75 mg/kg 1×wk
[5] = Example 6, Table 10, 150 mg/kg 1×wk
[6] = Example 5, Table 9, RNase 1 15 mg/kg qd×5, gemcite 60 mg/kg twice a week
[7] = Example 7, Table 11, 30 mg/kg 1×wk
[8] = Example 7, Table 11, 75 mg/kg 1×wk
[9] = Example 7, Table 11, 150 mg/kg 1×wk

## Wild type human RNase 1: wild type human ribonuclease 1 (human pancreatic RNase), SEQ ID NO:1
[1]; [3]
  % TGI: 51%
  (Final − start): 149 mm^3
  (Final − start)/Control: 0.49
  Final volume: 217 mm^3
  Starting volume: 68 mm^3
[1]; [4]
  % TGI: 63%
  (Final − start): 300 mm^3
  (Final − start)/Control: 0.37
  Final volume: 378 mm^3
  Starting volume: 78 mm^3
[1]; [5]
  % TGI: 66%
  (Final − start): 276 mm^3
  (Final − start)/Control: 0.34
  Final volume: 355 mm^3
  Starting volume: 79 mm^3
[2]; [6]
  % TGI: 24%
  (Final − start): 822 mm^3
  (Final − start)/Control: 0.76
  Final volume: 899 mm^3
  Starting volume: 77 mm^3
[2]; [7]
  % TGI: 3%
  (Final − start): 554 mm^3
  (Final − start)/Control: 0.97
  Final volume: 632 mm^3
  Starting volume: 78 mm^3
[2]; [8]
  % TGI: 43%
  (Final − start): 323 mm^3
  (Final − start)/Control: 0.57
  Final volume: 392 mm^3
  Starting volume: 69 mm^3
[2]; [9]
  % TGI: 29%
  (Final − start): 402 mm^3
  (Final − start)/Control: 0.71
  Final volume: 471 mm^3
  Starting volume: 69 mm^3
